We go through 4 molecules from article PMC7673237 (ACS infectious diseases, 2020).

Data set [1] deals with OXA-10 (Pseudomonas aeruginosa, UniProt P14489). Kind of data set: Inhibition assay with nitrocefin as reporter, OXA-10. It is filed as biochemical.
Data set [2] deals with OXA-48 (Klebsiella pneumoniae, UniProt Q6XEC0). Kind of data set: Inhibition of OXA-48 mediated nitrocefin hydrolysis. It counts as biochemical. Conditions: purified OXA-48, nitrocefin substrate, Morrison equation.
Data set [3] relates to E. coli MG1655OXA-48. The experiment in a line: Bacterial susceptibility. As to conditions: for MIC: Escherichia coli. It is filed as cell-based.
The target of data set [4] is OXA-163 (Klebsiella pneumoniae, UniProt Q6XEC0, DEL214-217/S212D). The experiment in a line: Inhibition assay with nitrocefin as reporter, OXA-163. It counts as biochemical. As to conditions: read-out: CDD-97 Ki; OXA-163, nitrocefin substrate.
Data set [5] concerns E. coli MG1655. The experiment in a line: Accumulation assay in E. coli. It counts as cell-based. As to conditions: wild-type E. coli MG1655, 10 minutes at 37°C, LC-MS/MS.
Data set [6] concerns the target OXA-58 (Acinetobacter baumannii, UniProt Q2TR58). Kind of data set: Inhibition assay with nitrocefin as reporter, OXA-58. It counts as biochemical.
The target of data set [7] is OXA-24 (Acinetobacter baumannii, UniProt Q8RLA6). The experiment in a line: Inhibition assay with nitrocefin as reporter, OXA-24. It counts as biochemical.

SMILES strings stand for the structures. Values after ≈ are worked out from the molar mass of the structure shown. Like-named read-outs stand apart in the source and are kept apart here.

As usually defined, the Ki is the equilibrium dissociation constant of an inhibitor or competing ligand from its target. `CCOc1ccccc1N1CCN(c2ncnc(N3CCC(C(=O)O)CC3)n2)CC1` [CDD-97]: the “Ki less potent than observed for OXA-48” value in data set [1] (OXA-10 vs OXA-48) and in data set [6] (OXA-58 vs OXA-48) was “about 100 fold” each time. Besides, the Ki in data set [1] (read-out: CDD-97 Ki, OXA-10, nitrocefin substrate) amounted to 61 ± 27 µM; in data set [2], 0.53 ± 0.08 µM; in data set [4], 0.44 ± 0.02 µM; in data set [6] (read-out: CDD-97 Ki, OXA-58, nitrocefin substrate), 45 ± 0.8 µM; in data set [7] (read-out: CDD-97 Ki, OXA-24, nitrocefin substrate), 14 ± 1 µM. The “AMP MIC” value was found to be 1024 µg/mL in data set [3] (with CDD-97 4 μg/mL); 512 µg/mL in data set [3] (with CDD-97 8 μg/mL); 512 µg/mL in data set [3] (with CDD-97 16 μg/mL); 512 µg/mL in data set [3] (with CDD-97 32 μg/mL); 512 µg/mL in data set [3] (with CDD-97 64 μg/mL). Moreover, the “IMP MIC” value in data set [3] (with CDD-97 4 μg/mL) is 0.625 µg/mL; in data set [3] (with CDD-97 8 μg/mL), 0.3125 µg/mL; in data set [3] (with CDD-97 16 μg/mL), 0.3125 µg/mL; in data set [3] (with CDD-97 32 μg/mL), 0.3125 µg/mL; in data set [3] (with CDD-97 64 μg/mL), 0.3125 µg/mL. In data set [5], the “level in cells lower than the positive control tetracycline” value is on record as 20 fold. Also, the “decrease in potency compared to OXA-48” value in data set [7] (OXA-24 vs OXA-48) came out at 26 fold.

Consider `CC1(C)S[C@@H]2[C@H](NC(=O)[C@H](N)c3ccccc3)C(=O)N2[C@H]1C(=O)O` [AMP, ampicillin], for which, in data set [3] (MG1655OXA48, read-out: AMP MIC, no inhibitor (0 μg/mL)), the MIC came to 512 µg/mL (≈ 1470 µM).

For the molecule `C[C@@H](O)[C@H]1C(=O)N2C(C(=O)O)=C(SCCN=CN)C[C@H]12` [IMP, imipenem], in data set [3] (MG1655OXA48, read-out: IMP MIC, no inhibitor (0 μg/mL)), the MIC was determined as 0.625 µg/mL (≈ 2.09 µM).

In the case of `NC(=O)[C@@H]1CC[C@@H]2CN1C(=O)N2OS(=O)(=O)O` [Avibactam, avibactam], the MIC in data set [3] (MG1655OXA48, read-out: AMP MIC, with avibactam 0.125 μg/mL) turned out to be 256 µg/mL; in data set [3] (MG1655OXA48, read-out: AMP MIC, with avibactam 0.25 μg/mL), 128 µg/mL; in data set [3] (MG1655OXA48, read-out: AMP MIC, with avibactam 0.5 μg/mL), 64 µg/mL; in data set [3] (MG1655OXA48, read-out: AMP MIC, with avibactam 1 μg/mL), 32 µg/mL; in data set [3] (MG1655OXA48, read-out: AMP MIC, with avibactam 2 μg/mL), 16 µg/mL; in data set [3] (MG1655OXA48, read-out: AMP MIC, with avibactam 4 μg/mL) it was 4 µg/mL. Also, the MIC in data set [3] (MG1655OXA48, read-out: IMP MIC, with avibactam 0.125 μg/mL) is 0.312 µg/mL; in data set [3] (MG1655OXA48, read-out: IMP MIC, with avibactam 0.25 μg/mL), 0.312 µg/mL; in data set [3] (MG1655OXA48, read-out: IMP MIC, with avibactam 0.5 μg/mL), 0.156 µg/mL; in data set [3] (MG1655OXA48, read-out: IMP MIC, with avibactam 1 μg/mL) it was 0.156 µg/mL; in data set [3] (MG1655OXA48, read-out: IMP MIC, with avibactam 2 μg/mL) it was 0.156 µg/mL; in data set [3] (MG1655OXA48, read-out: IMP MIC, with avibactam 4 μg/mL) it was 0.0781 µg/mL. For the same molecule, in data set [3] (inhibitor up to 4 μg/ml), the “change of both the AMP and IMP MICs with increasing inhibitor concentration” value is “dose-dependent decrease”.
